According to patent US12611443B2, “Methods and compositions related to therapeutic peptides for cancer therapy” (THE UNIVERSITY OF CHICAGO, priority 2018, dated 2026):

Tests used:
[1] = test system: cancer cells; assay: ELANE internalization by cancer cells and effect of endocytosis inhibitor; assay type: cell-based; conditions: cancer cell lysates, 30 mins
Procedure: FIGS. 1A-1K. ELANE cleaves CD95 to selectively kill cancer cells. (A): Heatmap summary of ELANE's effects on survival, stress, and apoptosis pathways in cancer cells and healthy cells. (B-C): Cancer cells were treated with ELANE (100 nM) and CD95 cleavage was assessed by western blotting using anti-N-terminal (B) or anti-C-terminal antibodies (C). *, lower molecular weight CD95 fragment. (D): Cancer cells or non-cancer cells were transduced to overexpress CD95 proteins, and effects on ELANE-mediated apoptosis were quantified by ANXAS at 30 min. n=2/group. See FIG. 1I for transduction and CD95 over-expression. (E): Cleavage of recombinant human CD95 N-terminal (aa 1-173) or C-terminal (aa 212-335) proteins by ELANE was assessed by SDS-PAGE and Coomassie blue staining. (F): Bands from (E) were digested with trypsin and analyzed by mass spectrometry to identify putative ELANE cleavage sites (i.e., peptides with non-tryptic ends). Major non-tryptic peptides were quantified by ion chromatograms. (G): Schematic of ELANE cleavage sites in CD95. […] (H): Cleavage of recombinant peptides corresponding to aa 214-231 and aa 317-335 in CD95 by ELANE was monitored by mass spectrometry. (I): Cancer cells or non-cancer cells were treated with fluorescein-labeled ELANE for 10 min and uptake was visualized by immunofluorescence. (J): ELANE catalytic activity in cancer cell lysates following exposure to ELANE for 30 mins in the presence and absence of Dynasore (60 μM endocytosis inhibitor). Effect of Dynasore on cancer cell killing capability of ELANE (measured by calcein-AM). n=6/group. (K): Cancer cells or non-cancer cells were transduced to overexpress various CD95 proteins, and cell viability in the absence of ELANE was determined by calcein-AM. n=10/group. *, p<0.05 Student's t-test.

[2] = test system: E0771 or MEL888 tumors; assay: Resistance to ELANE, repeated treatment of tumors in vivo and killing ex vivo; set-up: species or system mice; conditions: once/day for 7 days, isolated cancer cells ex vivo
Source text: (§1) To explore whether cancer cells could acquire resistance to ELANE, a combination of in vitro and in vivo approaches were used.

[3] = test system: tumor immune cells; assay: Tumor immune cell analysis by flow cytometry; assay type: in vivo, mice
Procedure: Tumor immune cell analysis. […] Cells were labeled with various antibodies and analyzed by flow cytometry. Data were quantified by FlowJo v.10.4.1. Antibodies included: CD45 (47-0451), CD11b (25-0112), MHCII (11-5321), CD4 (17-0041), CD8 (12-0081), CD44 (25-0441) from ThermoFisher Scientific; CD3 (560527), CD62L (561917), from BD Biosciences, and Ly6G (127614) from BioLegend.
Assessment of potential side-effects. ELANE or PMSF-ELANE (11.6 μg/100 μL) were injected into the 4th mammary fat pad of the right ventral side pad of tumor-free C57BL/6 mice once/day for 5 days. One day after the last injection, mice were studied for potential side-effects. Body weight and spleen weight were measured. Apoptosis at the injection site was studied by isolating, fixing, and staining mammary adipose tissue for TUNEL, cCASP3, and cPARP using identical methods described for tumors above. Mammary adipose tissue immune cell populations at the injection site were determined by flow cytometry using identical methods described for tumors above. Liver function was assessed by measuring plasma ALT activity with the Alanine Transaminase Colorimetric Activity Assays Kit (Cayman Chemical).

[4] = test system: MDA-MB-231 cells; assay: Resistance to ELANE, repeated exposure in vitro; assay type: cell-based, human; conditions: 7 exposures, ˜90% death/exposure
Source text: as §1

ELANE: neutrophil elastase, a serine protease released by human PMNs
catalytic activity of internalized ELANE [1]: retained its catalytic activity | acquired resistance after repeated treatment in vivo [2]: did not attenuate ELANE's ability to kill the isolated cancer cells ex vivo | immune cells at injection site of tumor-free mice ([3]; mammary fat pads of tumor-free mice): Immune cell increases were not observed | tumor immune cells ([3]; three immunocompetent models): increased the number of dendritic cells (DCs), CD8^+ T cells, and CD8^+ T effector cells (CD8^+Teff) in all three immunocompetent models tested | acquired resistance after repeated exposure in vitro [4]: did not confer resistance
